Assay results as given in paper PMC10451648 (Antibiotics, 2023).
In brackets after ≈: the same amount, converted by molar mass. Entries after “also recorded” stand apart in the source; their conditions may differ. Where two headings read alike, the source gives them in different places. Square brackets hold non-standard residues; d marks the D form. Peptide text beside a SMILES is read from it. Api = NC1(C(=O)O)CCNCC1; Aib = CC(C)(N)C(=O)O

Assays:
P. aeruginosa NBRC 13275 = format: cell-based, Pseudomonas aeruginosa; details: NBRC 13275, 18 h
Procedure: (§1) The antimicrobial activities of peptides 1–8 against Gram-positive Staphylococcus aureus, Gram-negative Escherichia coli DH5α, Pseudomonas aeruginosa, and multidrug-resistant P. aeruginosa (MDRP) were evaluated. The minimum inhibitory concentration (MIC) against these bacteria was measured as an indicator of antimicrobial activity, and the results are discussed in Table 2.
(§2) One type of Gram-positive bacteria, S. aureus NBRC 13276, and three Gram-negative bacteria, E. coli DH5α, P. aeruginosa NBRC 13275, and MDRP, were selected for the evaluation of the antimicrobial activity of the synthesized peptides. The selected bacterial strains were obtained from the Biological Resource Center, NITE (NBRC; Tokyo, Japan), and Escherichia coli DH5α cells were purchased from BioDynamics Laboratory, Inc. (Tokyo, Japan). The antimicrobial activities of the tested peptides 1–8 against each stain were examined by the standard broth microdilution method, as previously reported. Briefly, the bacteria were seeded and grown overnight at 37 °C on Agar media for other organisms i (Agar medium) and then collected with the media for other organisms ii (liquid medium), according to the 17th revision of Japanese Pharmacopoeia. Next, 10 μL of the peptide solution per well was added to each well of a sterile 96-well plate, and 90 μL per well of inoculation was mixed with 10^4 CFUs (colony forming units) per mL and added to each well, and the plate was incubated for 18 h at 35 °C.

Escherichia coli DH5α = format: cell-based; details: broth microdilution, 10^4 CFUs per mL, 18 h at 35 °C; MIC = lowest concentration that completely inhibited bacterial growth; final conc. 0.39 to 100
Procedure: as §1, §2

S. aureus NBRC 13276 = format: cell-based, Staphylococcus aureus
Procedure: as §1, §2

[1] = PBS without FBS
human red blood cells = test: Hemolysis activity against red blood cells; details: human RBCs in 172 mM Tris-HCl pH 7.6, 30 min at 37 °C, absorbance 535 nm; DMSO = 0%, M-Lycotoxin = 100%; final peptide conc. 100 to 0.39
Procedure: AMPs primarily target microbial membranes, leading to their antimicrobial activity through membrane lysis. However, it is important to consider their potential effects on human cell membranes, as this could raise concerns regarding cytotoxicity. […] Hemolytic activity was assessed by measuring the absorption at 535 nm, which indicates the leakage of red blood cell cytoplasmic contents and hemoglobin.
Human red blood cells (RBCs) were supplied by the Japanese Red Cross Society (Tokyo, Japan). The hemolytic assay of the synthesized peptides was performed as previously reported. Briefly, 5.0 mL of the total erythrocytes were washed three times with 172 mM Tris-HCl buffer (pH = 7.6, wash buffer:WB) and 1.0 mL of precipitated erythrocytes was diluted with 9.0 mL of WB. Then, 0.5 mL of the suspension was diluted in WB, and 50 µL of RBC solution was incubated with 50 µL of each peptide for 30 min at 37 °C (final peptide conc. from 100 to 0.39 μM). The suspensions were then centrifuged at 400 rpm for 5 min. The absorbance of the supernatant was measured at a wavelength of 535 nm. M-Lycotoxin [22], which is a typical hemolytic toxic peptide derived from Wolf spider, was used as a positive control, and the absorbance of the sample from DMSO and M-Lycotoxin treatment was defined as 0 and 100%, respectively.

in vitro = details: 50% fetal bovine serum in PBS
[2] = tested on: multidrug-resistant P. aeruginosa (MDRP); format: cell-based, Pseudomonas aeruginosa; details: multidrug-resistant (MDRP, 18 h)
Procedure: as §1, §2

Proteinase K = test: 0.002% (v/v) Proteinase K; details: 37 °C, up to 24 h
[3] = broth microdilution, 10^4 CFUs per mL, 18 h at 35 °C, MIC = lowest concentration that completely inhibited bacterial growth, final conc. 0.39 to 100

Row | Compound | MIC, P. aeruginosa, Gram(−) (P. aeruginosa NBRC 13275) [µM] | MIC, E. Coli DH5α, Gram(−) (Escherichia coli DH5α) [µM] | MIC, S. aureus, Gram(+) (S. aureus NBRC 13276; [3]) [µM] | Stability in PBS [1] | Hemolysis (concentration at which hemolytic activity is exhibited) (human red blood cells) [µM] | remaining at 24 h (in vitro) [%] | residual amount after 24 h proteinase K treatment [%] | MIC, S. aureus, Gram(+) (S. aureus NBRC 13276; NBRC 13276, 18 h) [µM] | MIC, MDRP [2] [µM] | cleaved bond (Proteinase K)
1 | CC[C@H](C)[C@H](NC(=O)CN)C(=O)NC1(C(=O)N[C@@H](CCCCN)C(=O)N[C@@H](Cc2ccccc2)C(=O)N[C@@H](CC(C)C)C(=O)N[C@@H](CCCCN)C(=O)N[C@@H](CO)C(=O)NC(C)(C)C(=O)N[C@@H](CCCCN)C(=O)N[C@@H](CCCCN)C(=O)N[C@@H](Cc2ccccc2)C(=O)N[C@H](C(=O)N[C@@H](CCCCN)C(=O)NC(C)(C)C(=O)N[C@@H](Cc2ccccc2)C(=O)N[C@@H](CCCCN)C(N)=O)C(C)C)CCNCC1 [Peptide 2] (H-GI[Api]KFLKS[Aib]KKFVK[Aib]FK-NH2) | 3.125 (≈ 6.23 µg/mL) | 3.125 (≈ 6.23 µg/mL) | 12.5 (≈ 24.9 µg/mL) | stable in PBS | 12.5 | 70 | > 60 | – | – | –
2 | CC[C@H](C)[C@H](NC(=O)CN)C(=O)N[C@@H](CCCCN)C(=O)NC1(C(=O)N[C@@H](Cc2ccccc2)C(=O)N[C@@H](CC(C)C)C(=O)N[C@@H](CCCCN)C(=O)N[C@@H](CO)C(=O)NC(C)(C)C(=O)N[C@@H](CCCCN)C(=O)N[C@@H](CCCCN)C(=O)N[C@@H](Cc2ccccc2)C(=O)N[C@H](C(=O)N[C@@H](CCCCN)C(=O)NC(C)(C)C(=O)N[C@@H](Cc2ccccc2)C(=O)N[C@@H](CCCCN)C(N)=O)C(C)C)CCNCC1 [Peptide 3] (H-GIK[Api]FLKS[Aib]KKFVK[Aib]FK-NH2) | 3.125 (≈ 6.23 µg/mL) | 3.125 (≈ 6.23 µg/mL) | – | – | 25 | – | – | 25 (≈ 49.8 µg/mL) | – | –
3 | CC[C@H](C)[C@H](NC(=O)CN)C(=O)N[C@@H](CCCCN)C(=O)N[C@@H](CCCCN)C(=O)N[C@@H](Cc1ccccc1)C(=O)N[C@@H](CC(C)C)C(=O)NC1(C(=O)N[C@@H](CO)C(=O)NC(C)(C)C(=O)N[C@@H](CCCCN)C(=O)N[C@@H](CCCCN)C(=O)N[C@@H](Cc2ccccc2)C(=O)N[C@H](C(=O)N[C@@H](CCCCN)C(=O)NC(C)(C)C(=O)N[C@@H](Cc2ccccc2)C(=O)N[C@@H](CCCCN)C(N)=O)C(C)C)CCNCC1 [Peptide 4] (H-GIKKFL[Api]S[Aib]KKFVK[Aib]FK-NH2) | 3.125 (≈ 6.23 µg/mL) | 1.56 (≈ 3.11 µg/mL) | 12.5 (≈ 24.9 µg/mL) | – | 12.5 | – | – | – | 6.25 (≈ 12.5 µg/mL) | –
4 | CC[C@H](C)[C@H](NC(=O)CN)C(=O)N[C@@H](CCCCN)C(=O)N[C@@H](CCCCN)C(=O)N[C@@H](Cc1ccccc1)C(=O)N[C@@H](CC(C)C)C(=O)N[C@@H](CCCCN)C(=O)N[C@@H](CO)C(=O)NC(C)(C)C(=O)NC1(C(=O)N[C@@H](CCCCN)C(=O)N[C@@H](Cc2ccccc2)C(=O)N[C@H](C(=O)N[C@@H](CCCCN)C(=O)NC(C)(C)C(=O)N[C@@H](Cc2ccccc2)C(=O)N[C@@H](CCCCN)C(N)=O)C(C)C)CCNCC1 [Peptide 5] (H-GIKKFLKS[Aib][Api]KFVK[Aib]FK-NH2) | 3.125 (≈ 6.23 µg/mL) | 1.56 (≈ 3.11 µg/mL) | – | – | 50 | – | – | 25 (≈ 49.8 µg/mL) | 6.25 (≈ 12.5 µg/mL) | –
5 | CC[C@H](C)[C@H](NC(=O)CN)C(=O)N[C@@H](CCCCN)C(=O)N[C@@H](CCCCN)C(=O)N[C@@H](Cc1ccccc1)C(=O)N[C@@H](CC(C)C)C(=O)N[C@@H](CCCCN)C(=O)N[C@@H](CO)C(=O)NC(C)(C)C(=O)N[C@@H](CCCCN)C(=O)NC1(C(=O)N[C@@H](Cc2ccccc2)C(=O)N[C@H](C(=O)N[C@@H](CCCCN)C(=O)NC(C)(C)C(=O)N[C@@H](Cc2ccccc2)C(=O)N[C@@H](CCCCN)C(N)=O)C(C)C)CCNCC1 [Peptide 6] (H-GIKKFLKS[Aib]K[Api]FVK[Aib]FK-NH2) | 3.125 (≈ 6.23 µg/mL) | 1.56 (≈ 3.11 µg/mL) | – | – | 50 | – | – | 12.5 (≈ 24.9 µg/mL) | 6.25 (≈ 12.5 µg/mL) | –
6 | CC[C@H](C)[C@H](NC(=O)CN)C(=O)N[C@@H](CCCCN)C(=O)N[C@@H](CCCCN)C(=O)N[C@@H](Cc1ccccc1)C(=O)N[C@@H](CC(C)C)C(=O)N[C@@H](CCCCN)C(=O)N[C@@H](CO)C(=O)NC(C)(C)C(=O)N[C@@H](CCCCN)C(=O)N[C@@H](CCCCN)C(=O)N[C@@H](Cc1ccccc1)C(=O)N[C@H](C(=O)NC1(C(=O)NC(C)(C)C(=O)N[C@@H](Cc2ccccc2)C(=O)N[C@@H](CCCCN)C(N)=O)CCNCC1)C(C)C [Peptide 7] (H-GIKKFLKS[Aib]KKFV[Api][Aib]FK-NH2) | 3.125 (≈ 6.23 µg/mL) | 1.56 (≈ 3.11 µg/mL) | 12.5 (≈ 24.9 µg/mL) | – | 12.5 | – | – | – | 6.25 (≈ 12.5 µg/mL) | –
7 | CC[C@H](C)[C@H](NC(=O)CN)C(=O)N[C@@H](CCCCN)C(=O)N[C@@H](CCCCN)C(=O)N[C@@H](Cc1ccccc1)C(=O)N[C@@H](CC(C)C)C(=O)N[C@@H](CCCCN)C(=O)N[C@@H](CO)C(=O)NC(C)(C)C(=O)N[C@@H](CCCCN)C(=O)N[C@@H](CCCCN)C(=O)N[C@@H](Cc1ccccc1)C(=O)N[C@H](C(=O)N[C@@H](CCCCN)C(=O)NC(C)(C)C(=O)N[C@@H](Cc1ccccc1)C(=O)NC1(C(N)=O)CCNCC1)C(C)C [Peptide 8] (H-GIKKFLKS[Aib]KKFVK[Aib]F[Api]-NH2) | 3.125 (≈ 6.23 µg/mL) | 3.125 (≈ 6.23 µg/mL) | – | – | 100 | – | – | 12.5 (≈ 24.9 µg/mL) | 12.5 (≈ 24.9 µg/mL) | –
8 | H-GIKKFLKS[Aib]KKFVK[Aib]FK-NH2 | – | – | – | – | – | – | – | – | – | Phe5-Leu6, 24 h; also recorded: Phe16-Lys17
9 | H-Gly-Ile-Api-Lys-Phe-Leu-Lys-Ser-Aib-Lys-Lys-Phe-Val-Lys-Aib-Phe-Lys-NH2 | – | – | – | – | – | – | – | – | – | Phe16-Lys17, 24 h
10 | H-Gly-Ile-Lys-Api-Phe-Leu-Lys-Ser-Aib-Lys-Lys-Phe-Val-Lys-Aib-Phe-Lys-NH2 | – | – | – | – | – | – | – | – | – | Phe16-Lys17, 24 h
11 | H-Gly-Ile-Lys-Lys-Phe-Leu-Api-Ser-Aib-Lys-Lys-Phe-Val-Lys-Aib-Phe-Lys-NH2 | – | – | – | – | – | – | – | – | – | Phe16-Lys17, 24 h
